# Data taken from US20080004180A1, “Novel Herbicides Based on Substituted Thien-3-Yl-Sulphonylamino(Thio) Carbonyl-Triazolin(Thi)Ones and 4-Hppd-Inhibitors” (Bayer Cropscience AG, priority 2004, published 2008).
# Assays:
# Format in all cases: in vivo
# [1] = test system: Alopecurus myosuroides; assay: Herbicidal action against Alopecurus myosuroides, single ingredients and combinations, with Colby expected action
# From the text: (§1) A synergistic effect is present in the case of herbicides whenever the herbicidal action of the active ingredient combination is greater than that of the individual active ingredients applied.
# (§2) The anticipated action for a given combination of two herbicides can be calculated as follows (cf. COLBY, S. R.: “Calculating synergistic and antagonistic responses of herbicide combinations”, Weeds 15, pages 20-22, 1967):
# (§3) If • X=% damage by herbicide A (active ingredient of formula I) at p kg/ha application rate • and • Y=% damage by herbicide B (active ingredient of Formula II) at q kg/ha application rate • and • E=the expected damage of the herbicides A and B at p and q kg/ha application rate, • then E=X+Y−(X*Y/100).
# [2] = test system: Amaranthus rudis; assay: Herbicidal action against Amaranthus rudis, single ingredients and combinations, with Colby expected action
# From the text: as §1, §2, §3
# [3] = test system: Galium aparine; assay: Herbicidal action against Galium aparine, single ingredients and combinations, with Colby expected action; conditions: Table A-3 (first); application rate 3.75 g a.i./ha
# From the text: as §1, §2, §3
compound,measurement,setting,value
CS(=O)(=O)c1ccc(C(=O)C2C(=O)CCCC2=O)c(Cl)c1COCC1CCCO1 (centres unmarked) [Compound (B.7)],Action against Alopecurus myosuroides (%),"[1]; Table A-1, application rate 3.75 g a.i./ha",0%
same,Action against Alopecurus myosuroides (%),"[1]; Table A-3 (second), application rate 7.5 g a.i./ha",0%
same,Action against Amaranthus rudis (%),"[2]; Table A-2, application rate 3.75 g a.i./ha",35%
same,Action against Amaranthus rudis (%),"[2]; Table A-4, application rate 7.5 g a.i./ha",0%
same,Action against Galium aparine (%),[3],0%
